Results taken from patent publication US20240174618A1, “SUBSTITUTED (2-HETEROARYLOXYPHENYL)SULFONATES, SALTS THEREOF AND THEIR USE AS HERBICIDAL AGENTS” (Bayer Aktiengesellschaft, priority 2021, published 2024).

Experiments:
Format in all cases: in vivo
[1] = tested on: Digitaria sanguinalis (DIGSA); assay: A. Herbicidal pre-emergence efficacy, DIGSA; conditions: scored visually after about 3 weeks vs untreated controls
In short: (§1)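 Pre-emergence soil-surface spray in sandy loam pots, WP/EC in water plus 0.5% additive, 600 L/ha. Visual % damage rating after about 3 weeks in greenhouse vs. untreated; 0% = control-like, 100% = dead plants. Rates up to 1280 g/ha.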

[2] = tested on: Digitaria sanguinalis (DIGSA); assay: B. Herbicidal post-emergence efficacy, DIGSA; conditions: 1280 g/ha, rated visually after about 3 weeks
Method: (§2) Seeds of mono- and dicotyledonous weed plants were placed in plastic pots in sandy loam soil (doubly sown with in each case one species of mono- or dicotyledonous weed plants per pot), covered with soil and cultivated in a greenhouse under controlled growth conditions. 2 to 3 weeks after sowing, the test plants were treated at the one-leaf stage. The compounds of the invention, formulated in the form of wettable powders (WP) or as emulsion concentrates (EC), were applied onto the green parts of the plants as aqueous suspension or emulsion with addition of 0.5% additive at a water application rate of 600 liters per hectare (converted). After the test plants had been kept in the greenhouse under optimum growth conditions for about 3 weeks, the activity of the preparations was rated visually in comparison to untreated controls.
(§3) For example, • 100% efficacy=plants have died, • 0% efficacy=like untreated control plants
(§4) Tables B1a to B12c below show the effects of selected inventive compounds of the general formula (I) according to table 1 on various harmful plants at an application rate corresponding to 1280 g/ha or less, which were obtained by the experimental procedure mentioned above.

[3] = tested on: Echinochloa crus-galli (ECHCG); assay: B. Herbicidal post-emergence efficacy, ECHCG; conditions: 1280 g/ha, rated visually after about 3 weeks
In short: (§5)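 Post-emergence foliar spray, at application rates of 1280 g/ha or less, on one-leaf-stage plants 2–3 weeks post-sowing, using aqueous WP or EC suspensions with 0.5% additive at 600 L/ha. Visual percent efficacy relative to untreated plants scored roughly 3 weeks later in the greenhouse.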

Stellaria media (STEME) [4] = assay: A. Herbicidal pre-emergence efficacy, STEME
In short: as §1

[5] = tested on: Abutilon theophrasti (ABUTH); assay: A. Herbicidal pre-emergence efficacy, ABUTH; conditions: scored visually after about 3 weeks vs untreated controls
In short: as §1

[6] = tested on: Abutilon theophrasti (ABUTH); assay: B. Herbicidal post-emergence efficacy, ABUTH; conditions: rated visually after about 3 weeks
In short: as §5

Stellaria media (STEME) [7] = assay: B. Herbicidal post-emergence efficacy, STEME
In short: as §5

[8] = tested on: Amaranthus retroflexus (AMARE); assay: B. Herbicidal post-emergence efficacy, AMARE
In short: as §5

Veronica persica (VERPE) [9] = assay: A. Herbicidal pre-emergence efficacy, VERPE
In short: as §1

Poa annua (POAAN) [10] = assay: B. Herbicidal post-emergence efficacy, POAAN
In short: as §5

Setaria viridis (SETVI) [11] = assay: B. Herbicidal post-emergence efficacy, SETVI; conditions: 1280 g/ha
Method: as §2, §3, §4

[12] = tested on: Echinochloa crus-galli (ECHCG); assay: A. Herbicidal pre-emergence efficacy, ECHCG; conditions: scored visually after about 3 weeks vs untreated controls
In short: as §1

Lolium rigidum (LOLRI) = assay: A. Herbicidal pre-emergence efficacy, LOLRI; conditions: dosage 1280 g/ha
Description: (§6) Seeds of mono- and dicotyledonous weed plants were placed in plastic pots in sandy loam soil (doubly sown with one species each of mono- or dicotyledonous weed plants per pot) and covered with soil. The compounds of the invention, formulated in the form of wettable powders (WP) or as emulsion concentrates (EC), were then applied onto the surface of the covering soil as aqueous suspension or emulsion with addition of 0.5% additive at a water application rate of 600 liters per hectare (converted). After the treatment, the pots were placed in a greenhouse and kept under good growth conditions for the test plants. After about 3 weeks, the efficacy of the preparations was scored visually in comparison with untreated controls as percentages.
(§7) For example, • 100% efficacy=plants have died, • 0% efficacy=like untreated control plants.
(§8) Tables A1a to A12c below show the effects of selected compounds of the general formula (I) according to table 1 on various harmful plants at an application rate corresponding to 1280 g/ha or less, which were obtained by the experimental procedure mentioned above.

Setaria viridis (SETVI) [13] = assay: A. Herbicidal pre-emergence efficacy, SETVI
In short: as §1

[14] = tested on: Amaranthus retroflexus (AMARE); assay: A. Herbicidal pre-emergence efficacy, AMARE
In short: as §1

Poa annua (POAAN) [15] = assay: A. Herbicidal pre-emergence efficacy, POAAN
In short: as §1

Veronica persica (VERPE) [16] = assay: B. Herbicidal post-emergence efficacy, VERPE
In short: as §5

[17] = tested on: Matricaria inodora (MATIN); assay: A. Herbicidal pre-emergence efficacy, MATIN; conditions: pre-emergence, dosage 1280 g/ha
Description: as §6, §7, §8

Kochia scoparia (KCHSC) = assay: B. Herbicidal post-emergence efficacy, KCHSC; conditions: 1280 g/ha
In short: as §5

Cc1cccc(Oc2ncc(Br)cn2)c1OS(=O)(=O)CCC(F)(F)F [Example I-33]
Pre-emergence efficacy against DIGSA ([1]; 320 g/ha): 100% | Pre-emergence efficacy against DIGSA ([1]; 1280 g/ha): 100% | Post-emergence efficacy against DIGSA in % [2]: 90% | Post-emergence efficacy against ECHCG in % [3]: 100% | Pre-emergence efficacy against STEME (Stellaria media (STEME) [4]; dosage 80 g/ha): 100% | Pre-emergence efficacy against STEME (Stellaria media (STEME) [4]; dosage 320 g/ha): 100% | Pre-emergence efficacy against STEME (Stellaria media (STEME) [4]; dosage 1280 g/ha): 100% | Pre-emergence efficacy against ABUTH ([5]; 320 g/ha): 100% | Pre-emergence efficacy against ABUTH ([5]; 1280 g/ha): 100% | Post-emergence efficacy against ABUTH in % ([6]; 320 g/ha): 90% | Post-emergence efficacy against ABUTH in % ([6]; 1280 g/ha): 100% | Post-emergence efficacy against STEME (Stellaria media (STEME) [7]; 80 g/ha): 90% | Post-emergence efficacy against STEME (Stellaria media (STEME) [7]; 320 g/ha): 100% | Post-emergence efficacy against STEME (Stellaria media (STEME) [7]; 1280 g/ha): 100% | Post-emergence efficacy against AMARE ([8]; 320 g/ha): 90% | Post-emergence efficacy against AMARE ([8]; 1280 g/ha): 100% | Pre-emergence efficacy against VERPE in % (Veronica persica (VERPE) [9]; 320 g/ha): 100% | Pre-emergence efficacy against VERPE in % (Veronica persica (VERPE) [9]; 1280 g/ha): 100% | Pre-emergence efficacy against VERPE (Veronica persica (VERPE) [9]; dosage 80 g/ha): 90% | Post-emergence efficacy against POAAN (Poa annua (POAAN) [10]; 320 g/ha): 90% | Post-emergence efficacy against POAAN (Poa annua (POAAN) [10]; 1280 g/ha): 100% | Post-emergence efficacy against SETVI (Setaria viridis (SETVI) [11]): 100% | Pre-emergence efficacy against ECHCG ([12]; 320 g/ha): 100% | Pre-emergence efficacy against ECHCG ([12]; 1280 g/ha): 100% | Pre-emergence efficacy against LOLRI (Lolium rigidum (LOLRI)): 100% | Pre-emergence efficacy against SETVI (Setaria viridis (SETVI) [13]; dosage 320 g/ha): 100% | Pre-emergence efficacy against SETVI (Setaria viridis (SETVI) [13]; dosage 1280 g/ha): 100% | Pre-emergence efficacy against AMARE in % ([14]; 80 g/ha): 90% | Pre-emergence efficacy against AMARE in % ([14]; 320 g/ha): 100% | Pre-emergence efficacy against AMARE in % ([14]; 1280 g/ha): 100% | Pre-emergence efficacy against POAAN (Poa annua (POAAN) [15]; dosage 320 g/ha): 100% | Pre-emergence efficacy against POAAN (Poa annua (POAAN) [15]; dosage 1280 g/ha): 100% | Post-emergence efficacy against VERPE (Veronica persica (VERPE) [16]; 80 g/ha): 100% | Post-emergence efficacy against VERPE (Veronica persica (VERPE) [16]; 320 g/ha): 100% | Post-emergence efficacy against VERPE (Veronica persica (VERPE) [16]; 1280 g/ha): 100% | Pre-emergence efficacy against MATIN [17]: 90% | Post-emergence efficacy against KCHSC (Kochia scoparia (KCHSC)): 100%
